Columns and labels:
[1] = test system: prostatic carcinoma cells; details: cited from earlier work
polyamine transporter = details: vs longer polyamines such as spermine and spermidine; cited from earlier work
HL-60 (TB) cells = test: cells; assay type: cell-based; details: Homo sapiens, leukemia, 48 hr, read-out: log10 G150 (converted)
SF-295 cells = test: In vitro cytotoxicity / cell growth inhibition, CNS cancer; assay type: cell-based; details: Homo sapiens; SF-295, CNS cancer, 48 hr; read-out: log10 G150 (converted)
Protocol: (§1) The anti-proliferative activities of the aziridinylpolyamines obtained in Synthesis Examples 1-4 were assessed by determining log10 G150 values against human cancer cell lines using the screening strategy described by Boyd et al, Drug Devel. Res. 34:91-109 (1995).
(§2) More specifically, the compounds were tested at a minimum of five concentrations at 10-fold dilutions using a 48 hr continuous exposure protocol. Each cell line shown in Table 1 below was inoculated onto microtiter plates. After a pre-incubation period of 24-48 hr at 37° C., the test compounds were added, and the culture was incubated for an additional 48 hr at 37° C. Cell viability or cell growth end-point determinations were performed by fixation of the cells, followed by staining with sulforhodamine B (Monks et al, J. Natl. Cancer Inst., 83:757-766 (1991)).

SNB-75 cells = test: as above; assay type: cell-based; details: Homo sapiens; SNB-75, CNS cancer, 48 hr; read-out: log10 G150 (converted)
Protocol: as §1, §2

U251 cells = test: as above; assay type: cell-based; details: Homo sapiens, U-251, 48 hr, read-out: log10 G150 (converted)
Protocol: as §1, §2

SF-539 cells = test: as above; assay type: cell-based; details: Homo sapiens; SF-539, CNS cancer, 48 hr; read-out: log10 G150 (converted)
Protocol: as §1, §2

SF-268 cells = test: as above; assay type: cell-based; details: Homo sapiens; SF-268, CNS cancer, 48 hr; read-out: log10 G150 (converted)
Protocol: as §1, §2

SNB-19 cells = test: as above; assay type: cell-based; details: Homo sapiens; SNB-19, CNS cancer, 48 hr; read-out: log10 G150 (converted)
Protocol: as §1, §2

HCC-2998 cells = test: In vitro cytotoxicity / cell growth inhibition, colon cancer; assay type: cell-based; details: Homo sapiens; HCC-2998, colon cancer, 48 hr; read-out: log10 G150 (converted)
Protocol: as §1, §2

HT29 cells = test: as above; assay type: cell-based; details: Homo sapiens, HT-29, 48 hr, read-out: log10 G150 (converted)
Protocol: as §1, §2

SW-620 cells = test: as above; assay type: cell-based; details: Homo sapiens; SW-620, colon cancer, 48 hr; read-out: log10 G150 (converted)
Protocol: as §1, §2

HCT-15 cells = test: as above; assay type: cell-based; details: Homo sapiens; HCT-15, colon cancer, 48 hr; read-out: log10 G150 (converted)
Protocol: as §1, §2

COLO 205 cells = test: as above; assay type: cell-based; details: Homo sapiens; COLO 205, colon cancer, 48 hr; read-out: log10 G150 (converted)
Protocol: as §1, §2

HCT-116 cells = test: as above; assay type: cell-based; details: Homo sapiens; HCT-116, colon cancer, 48 hr; read-out: log10 G150 (converted)
Protocol: as §1, §2

KM12 cells = test: as above; assay type: cell-based; details: Homo sapiens, 48 hr, read-out: log10 G150 (converted)
Protocol: as §1, §2

NCl-H522 cells = test: In vitro cytotoxicity / cell growth inhibition, non-small cell lung cancer; assay type: cell-based; details: Homo sapiens, 48 hr, read-out: log10 G150 (converted)
Protocol: as §1, §2

NCl-H460 cells = test: as above; assay type: cell-based; details: Homo sapiens, 48 hr, read-out: log10 G150 (converted)
Protocol: as §1, §2

A549/ATCC cells = test: as above; assay type: cell-based; details: Homo sapiens, 48 hr, read-out: log10 G150 (converted)
Protocol: as §1, §2

EKVX cells = test: as above; assay type: cell-based; details: Homo sapiens, 48 hr, read-out: log10 G150 (converted)
Protocol: as §1, §2

NCl-H322M cells = test: as above; assay type: cell-based; details: Homo sapiens, 48 hr, read-out: log10 G150 (converted)
Protocol: as §1, §2

NCl-H226 cells = test: as above; assay type: cell-based; details: Homo sapiens, 48 hr, read-out: log10 G150 (converted)
Protocol: as §1, §2

NCl-H23 cells = test: as above; assay type: cell-based; details: Homo sapiens, 48 hr, read-out: log10 G150 (converted)
Protocol: as §1, §2

HOP-92 cells = test: as above; assay type: cell-based; details: Homo sapiens; HOP-92, non-small cell lung cancer, 48 hr; read-out: log10 G150 (converted)
Protocol: as §1, §2

HOP-62 cells = test: as above; assay type: cell-based; details: Homo sapiens; HOP-62, non-small cell lung cancer, 48 hr; read-out: log10 G150 (converted)
Protocol: as §1, §2

K-562 cells = test: In vitro cytotoxicity / cell growth inhibition, leukemia; assay type: cell-based; details: Homo sapiens, K562; K-562, leukemia, 48 hr; read-out: log10 G150 (converted)
Protocol: as §1, §2

SR cells = test: as above; assay type: cell-based; details: Homo sapiens, 48 hr, read-out: log10 G150 (converted)
Protocol: as §1, §2

CCRF-CEN cells = test: as above; assay type: cell-based; details: Homo sapiens, 48 hr, read-out: log10 G150 (converted)
Protocol: as §1, §2

MOLT-4 cells = test: as above; assay type: cell-based; details: Homo sapiens; MOLT-4, leukemia, 48 hr; read-out: log10 G150 (converted)
Protocol: as §1, §2

RPMI-8226 cells = test: as above; assay type: cell-based; details: Homo sapiens; RPMI-8226, leukemia, 48 hr; read-out: log10 G150 (converted)
Protocol: as §1, §2

A498 cells = test: In vitro cytotoxicity / cell growth inhibition, renal cancer; assay type: cell-based; details: Homo sapiens, 48 hr, read-out: log10 G150 (converted)
Protocol: as §1, §2

786-0 cells = test: as above; assay type: cell-based; details: Homo sapiens; 786-0, renal cancer, 48 hr; read-out: log10 G150 (converted)
Protocol: as §1, §2

TK-10 cells = test: as above; assay type: cell-based; details: Homo sapiens; TK-10, renal cancer, 48 hr; read-out: log10 G150 (converted)
Protocol: as §1, §2

CAKI-1 cells = test: as above; assay type: cell-based; details: Homo sapiens; CAKI-1, renal cancer, 48 hr; read-out: log10 G150 (converted)
Protocol: as §1, §2

ACHN cells = test: as above; assay type: cell-based; details: Homo sapiens, 48 hr, read-out: log10 G150 (converted)
Protocol: as §1, §2

RXF-393 cells = test: as above; assay type: cell-based; details: Homo sapiens; RXF-393, renal cancer, 48 hr; read-out: log10 G150 (converted)
Protocol: as §1, §2

UO-31 cells = test: as above; assay type: cell-based; details: Homo sapiens; UO-31, renal cancer, 48 hr; read-out: log10 G150 (converted)
Protocol: as §1, §2

SN12C cells = test: as above; assay type: cell-based; details: Homo sapiens, 48 hr, read-out: log10 G150 (converted)
Protocol: as §1, §2

cancer cell lines = details: cited from earlier work
cells = details: suggested by the biological activity profile; cited from earlier work
DNA = details: compared with chlorambucil per se; cited from earlier work
[2] = relative to level predicted from in vitro studies; cited from earlier work

Compound | GI50 (HL-60 (TB) cells) | GI50 (SF-295 cells) | GI50 (SNB-75 cells) | GI50 (U251 cells) | GI50 (SF-539 cells) | GI50 (SF-268 cells) | GI50 (SNB-19 cells) | GI50 (HCC-2998 cells) | GI50 (HT29 cells) | GI50 (SW-620 cells) | GI50 (HCT-15 cells) | GI50 (COLO 205 cells) | GI50 (HCT-116 cells) | GI50 (KM12 cells) | GI50 (NCl-H522 cells) | GI50 (NCl-H460 cells) | GI50 (A549/ATCC cells) | GI50 (EKVX cells) | GI50 (NCl-H322M cells) | GI50 (NCl-H226 cells) | also measured
NCCCCN1CC1 [N-(4-aminobutyl)aziridine] |  |  |  |  |  |  |  |  |  |  |  |  |  |  |  |  |  |  |  |  | cytotoxicity against prostatic carcinoma cells [1]: cytotoxic against prostatic carcinoma cells; effectiveness as substrate for the polyamine transporter (polyamine transporter): less effective as a substrate for the polyamine transporter than the longer polyamines
CC(CCNCCCCNCCC(C)N1CC1)N1CC1 (stereo not shown) [Synthesis Example 3, 2,13-Diaziridinyl-5,10-diazatetradecane] | 3.31 µM | 24 µM | 3.39 µM | 15.8 µM | 6.31 µM | 14.5 µM | 26.3 µM | 55 µM | 20 µM | 22.4 µM | 41.7 µM | 14.8 µM | 26.3 µM | 81.3 µM | 12.6 µM | 6.17 µM | 29.5 µM | 30.9 µM | 63.1 µM | 23.4 µM | GI50 (NCl-H23 cells): 13.2 µM; GI50 (HOP-92 cells): 19.1 µM; GI50 (HOP-62 cells): 30.9 µM; GI50 (K-562 cells): 21.4 µM; GI50 (SR cells): 3.63 µM; GI50 (CCRF-CEN cells): 4.79 µM; GI50 (MOLT-4 cells): 3.24 µM; GI50 (RPMI-8226 cells): 27.5 µM; GI50 (A498 cells): 69.2 µM; GI50 (786-0 cells): 3.8 µM; GI50 (TK-10 cells): > 100 µM; GI50 (CAKI-1 cells): 5.01 µM; GI50 (ACHN cells): 5.75 µM; GI50 (RXF-393 cells): 15.1 µM; GI50 (UO-31 cells): 35.5 µM; GI50 (SN12C cells): 9.55 µM
NCCCNCCCCN1CC1 [N-(4-aziridinylbutyl)-1,3-diaminopropane] |  |  |  |  |  |  |  |  |  |  |  |  |  |  |  |  |  |  |  |  | cytotoxicity against a variety of cancer cell lines (cancer cell lines): cytotoxic against a variety of cancer cell lines in submicromolar concentrations
C(CNCCCN1CC1)CNCCCN1CC1 [Synthesis Example 2, 1,11-Diaziridinyl-4,8-diazaundecane] | 2.69 µM | 14.5 µM | 3.98 µM | 6.92 µM | 11.2 µM | 10.7 µM | 18.2 µM | 20.4 µM | 18.6 µM | 26.3 µM | 21.9 µM | 13.2 µM | 19.5 µM | 19.5 µM | 11.2 µM | 2.95 µM | 13.2 µM | 25.1 µM | 36.3 µM | 18.6 µM | GI50 (NCl-H23 cells): 10.7 µM; GI50 (HOP-92 cells): 11.2 µM; GI50 (HOP-62 cells): 6.31 µM; GI50 (K-562 cells): 19.5 µM; GI50 (SR cells): 3.09 µM; GI50 (CCRF-CEN cells): 3.72 µM; GI50 (MOLT-4 cells): 3.09 µM; GI50 (RPMI-8226 cells): 22.4 µM; GI50 (A498 cells): 28.2 µM; GI50 (786-0 cells): 3.39 µM; GI50 (TK-10 cells): 14.5 µM; GI50 (CAKI-1 cells): 4.07 µM; GI50 (ACHN cells): 3.89 µM; GI50 (RXF-393 cells): 3.89 µM; GI50 (UO-31 cells): 17 µM; GI50 (SN12C cells): 6.76 µM
NCCCCN(CCCN)CCCNC(=O)CCCc1ccc(N(CCCl)CCCl)cc1 [chlorambucil-spermidine conjugate] |  |  |  |  |  |  |  |  |  |  |  |  |  |  |  |  |  |  |  |  | uptake by cells (cells): not taken up well by cells; production of DNA cross-links (DNA): highly efficient at producing DNA cross-links compared with chlorambucil per se; in vivo potency [2]: in vivo potency does not reach the level predicted from in vitro studies
NCCCCNCCCN1CC1 [N-(3-aziridinylpropyl)-1,4-diaminobutane] |  |  |  |  |  |  |  |  |  |  |  |  |  |  |  |  |  |  |  |  | cytotoxicity against a variety of cancer cell lines (cancer cell lines): cytotoxic against a variety of cancer cell lines in submicromolar concentrations
CC1CN1CCCNCCCCNCCCN1CC1C (stereo not shown) [Synthesis Example 4, 1,12-Di-(2-methyl-1-aziridinyl)-4,9-diazadodecane] | 2.95 µM | 47.9 µM | 2.34 µM | 13.2 µM | 12.9 µM | 20.4 µM | 25.7 µM | 19.1 µM | 20.4 µM | 41.7 µM | > 100 µM | 10 µM | 20.9 µM | 64.6 µM | 7.24 µM | 9.12 µM | 18.2 µM | 32.4 µM | 91.2 µM | 19.1 µM | GI50 (NCl-H23 cells): 8.71 µM; GI50 (HOP-92 cells): 14.5 µM; GI50 (HOP-62 cells): 10.7 µM; GI50 (K-562 cells): 29.5 µM; GI50 (SR cells): 4.9 µM; GI50 (CCRF-CEN cells): 3.98 µM; GI50 (MOLT-4 cells): 2.95 µM; GI50 (RPMI-8226 cells): 31.6 µM; GI50 (A498 cells): > 100 µM; GI50 (786-0 cells): 4.47 µM; GI50 (TK-10 cells): 11.7 µM; GI50 (CAKI-1 cells): 3.47 µM; GI50 (ACHN cells): 19.1 µM; GI50 (RXF-393 cells): 11 µM; GI50 (UO-31 cells): 17.4 µM; GI50 (SN12C cells): 9.77 µM

Reference: US5612329A (priority 1995, dated 1997)
